Data set [1] deals with WT TTR cytotoxicity in human IMR-32 neuroblastoma cells. The data set can be described thus: Inhibition of WT TTR cytotoxicity. As to conditions: WT TTR and ligand 8 μM each, IMR-32, 24 h.
Description: (§1) The human cardiac cell line AC16 was maintained in DMEM:F12 (1:1) supplemented with 10% FBS, 1 mM Hepes buffer, 2 mM L-glutamine, 100 units/mL penicillin and 100 μg/mL streptomycin. Two to 4-day-old cultures (˜70% confluent) were used for the experiments.
(§2) Recombinant WT TTR purified in the cold in HBSS (Mediatech, Manassas, Va.) was used as a cytotoxic insult to IMR-32 cells and the amyloidogenic V122I TTR was used as cytotoxic insult to cardiac AC16 cells. Candidate compounds (16 mM in DMSO) were diluted 1:1000 with WT TTR or V122I TTR (16 mM in HBSS, filter sterilized) or with HBSS only. The mixtures were vortexed and incubated for 24 h at 4° C. WT TTR or V122I TTR (16 mM in HBSS) containing the same amount of DMSO than TTR/candidate compound mixtures was prepared in parallel and incubated under the same conditions.
(§3) The neuroblastoma IMR-32 and the cardiac AC16 cells were seeded in black wall, clear bottom, tissue culture treated 96-well plates (Costar) at a density of 6,000 cells/well and 250 cells/well, respectively in Opti-mem supplemented with 5% FBS, 1 mM Hepes buffer, 2 mM L-glutamine, 100 units/mL penicillin and 100 μg/mL streptomycin, 0.05 mg/mL CaCl2 and incubated overnight at 37° C. The medium was then removed and replaced immediately by the TTR/compound or HBSS previously diluted 1:1 in Opti-mem supplemented with 0.8 mg/mL BSA, 2 mM Hepes buffer, 4 mM L-glutamine, 200 units/mL penicillin, 200 μg/mL streptomycin and 0.1 mg/mL CaCl2. The cells were incubated 24 h at 37° C. after which cell viability was measured.
(§4) Cell viability of the cells treated with TTR or TTR/candidate compound was evaluated by a resazurin reduction assay. Briefly, 10 μL/well of resazurin (500 mM, PBS) was added to each well and incubated for 2-3 h at 37° C. Viable cells reduce resazurin to the highly fluorescent resorufin dye, which is quantitated in a multiwell plate reader (Ex/Em 530/590 nm, Tecan Safire2, Austria). Cell viability was calculated as percentage of fluorescence relative to cells treated with vehicle only (100% viability) after subtraction of blank fluorescence (wells without cells). All experimental conditions were performed at least in six replicates. Averages and SEM corresponding to 2 independently performed experiments were calculated.
(§5) The compounds under study were pre-incubated with WT TTR or V122I TTR for 24 h at 4° C. at equimolar concentrations (8 μM) and added to IMR-32 cells or AC16 cells, respectively. Cell viability was measured after 24 h by a resazurin reduction assay. […] The percentage of viable cells was calculated relative to cells treated with vehicle only (cell culture media and DMSO)—which were assigned to be 100% viable.
Data set [2] concerns V122I TTR cytotoxicity in human AC16 cardiac cells. The data set is described as follows: Inhibition of V122I TTR cytotoxicity. As to conditions: V122I TTR and ligand 8 μM each, AC16, 24 h.
Description: as §1, §2, §3, §4, §5
Data set [3] has as its target T1, TTR (Homo sapiens (Human), UniProt P02766). The data set is described as follows: Determination of IC50 using the FP assay (HTS format). The format is binding. The settings on record: read-out: IC50 (50% decrease in the FP signal); repurchased top 33 hits, 10-point duplicate dose-response.
The target of another data set is WT TTR (Homo sapiens (Human), UniProt P02766). The data set is described as follows: Acid-mediated fibril formation assay for TTR amyloidogenesis (turbidity). As to conditions: ligand 7.2 μM, TTR 3.6 μM, pH 4.4, 37° C., 72 h; no inhibitor = 100%.
The target in data set [4] is wild type biotinylated TTR (Homo sapiens (Human), UniProt P02766). The data set is described as follows: Surface plasmon resonance (SPR) assay on immobilized biotinylated TTR. The format is binding. On the procedure:
To an ice-cold solution of TTR (20 μM) in PBS was added EZ-Link Sulfo-NHS-LC-Biotin at a ratio of ˜2:1 (biotin:TTR) (minimal biotinylation) and the solution was incubated at room temperature. After 1 hour, un-reacted biotin was removed by passing the sample over a fast (FPLC) desalting column (Superdex™ 75) equilibrated with PBS.
SPR measurements were performed at 25° C. using a Biacore T100 (GE Healthcare) instrument equilibrated in 1% DMSO in PBS as a running buffer. After pretreatment of the streptavidin-coated chip (Sensor Chop SA, Biacore), ˜4000 RU biotinylated TTR was immobilized on one channel leaving the second flow channel as a blank (streptavidin alone) control. For binding measurements, HTS hits were diluted in running buffer (1% DMSO/PBS) and different dilution series were flowed over the chip at 50 μL/min ([…], 600 s wash). A zero concentration sample was used as a negative control. The kinetic data was fitted to a one-to-one binding model using Biacore T100 evaluation software.
(SPR reads the build-up and loss of mass on a sensor chip optically.)

Data set [5] has as its target T1, TTR. The data set is described as follows: FP saturation binding experiment. The settings on record: FITC alone. On the procedure:
The binding of probe 5 for TTR was evaluated as follows. […] The samples were allowed to equilibrate by agitation for 20 min at room temperature. Fluorescence polarization (excitation λ 485 nm, emission λ 525 nm, Cutoff λ 515 nm) measurements were taken using SpectraMax M5 Microplate Reader (Molecular Devices). […] Nonspecific FP, produced by the free fluorescent probe 5 as well as by binding of 5 to the plate, was equal to 70±10 mP.

The next data set concerns the target human wild type TTR (Homo sapiens (Human), UniProt P02766). The data set can be described thus: Isothermal titration calorimetry (ITC) of ligands against TTR. The format is binding. On the procedure: Calorimetric titrations were carried out on a VP-ITC calorimeter (MicroCal, Northhampton, Mass.). […] Prior to each titration, all samples were degassed for 10 minutes. The initial injection of 3.0 μL was followed by 30 injections of 8.0 μL each (25° C.) to the point that TTR was fully saturated with ligand. Integration of the thermogram after subtraction of blanks yielded a binding isotherm that was analyzed with MicroCal Origin 5.0 software.
(In general: In ITC the heat of successive injections is recorded.)

In the case of `CN1C(=N)NC(=O)/C1=C/c1cc(Br)c(O)c(Br)c1` [Compound 14], the “Prevention of TTR-induced cytotoxicity” value in data set [1] and in data set [2] was “completely prevented” each time.
Broadly, the IC50 is the midpoint of a concentration-inhibition curve. Take `O=C(O)Cc1ccccc1Nc1c(Cl)cccc1Cl` [drawing 78]: the IC50 on TTR [3] came out at 3.74 µM. Moreover, at WT TTR, the “% fibril formation” value came to 11.56 ± 0.72%.
Regarding `O=C(O)Cc1ccccc1Nc1c(Cl)cccc1Cl` [Diclofenac], in data set [4], the “lower target residence time than 7 (fold)” value is on record as approximately 40 ×.
Consider Fluorescein isothiocyanate [FITC], for which the “Interaction with TTR (change in FP signal upon addition of TTR)” value on TTR [5] was “no interaction with TTR”.
For the compound `O=C(O)c1ccccc1Nc1cc(Cl)c(OCCOCCOCCNC(=S)Nc2ccc3c(c2)C(=O)OC32c3ccc(O)cc3Oc3cc(O)ccc32)c(Cl)c1` [Compound 5, 2-(3,5-dichloro-4-(2-(2-(2-(3-(3′,6′-dihydroxy-3-oxo-3H-spiro[isobenzofuran-1,9′-xanthene]-5-yl)thioureido)ethoxy)ethoxy)ethoxy)phenylamino)benzoic acid], on human wild type TTR, the “Decrease in binding affinity to TTR relative to 4 (fold)” value was approximately 3 fold.
Turning to `O=C(O)c1cccnc1Nc1cccc(C(F)(F)F)c1` [Niflumic acid, niflumic acid, reference compound], the “Prevention of TTR-induced cytotoxicity” value in data set [2] is recorded as “relatively poor inhibitor”.
As for `Cc1ccc(Cl)c(Nc2ccccc2C(=O)O)c1Cl`, the IC50 at TTR [3] is 0.504 µM. Further, the “% fibril formation” value at WT TTR was 3.87 ± 0.93%.
`Cc1n[nH]c(C)c1CCCOc1ccccc1F` [Compound 7]: the “Prevention of TTR-induced cytotoxicity” value in data set [1] and in data set [2] was “completely prevented” each time.
As to `O=C(c1cc(O)c(O)c([N+](=O)[O-])c1)c1ccccc1F` [Ro 41-0960, reference compound], the “Prevention of TTR-induced cytotoxicity” value in data set [1] and in data set [2] was “completely prevented” in each case.
As to `O=[N+]([O-])c1cc(O)c(O)c([N+](=O)[O-])c1` [3,5-dinitrocatechol, 3,5-dinitrocatechol, reference compound], the “Prevention of TTR-induced cytotoxicity” value in data set [1] and in data set [2] was “poor inhibitor” in each case.
As to `Cc1n[nH]c(C)c1CCc1nc2c3ccccc3[nH]c(=S)n2n1` [Compound 15], the “Prevention of TTR-induced cytotoxicity” value in data set [1] and in data set [2] was “completely prevented” in each case.

Values taken from US11337935B2, “Identification of stabilizers of multimeric proteins” (The Board of Trustees of the Leland Stanford Junior …, priority 2010, dated 2022).
